US8772344B2, “Pharmaceutical composition for inhibiting osteoclast growth” (National Defense Medical Center, priority 2011, dated 2014)

Legend:
[1] = test system: osteoclasts from bone marrow-derived macrophages; test: Osteoclast formation from bone marrow-derived macrophages (M-CSF and RANKL), TRAP staining and count of multinucleated cells; format: cell-based, DBA/1J mice; settings: for effect for inhibiting osteoclast growth: comparison among the nine compounds of table 1, cell system not stated; for inhibiting osteoclasts grown (observation of plates, FIG. 2A) / numbers of osteoclasts as a function of concentration (FIG. 3): bone marrow-derived macrophages; for inhibiting osteoclasts grown (observation of plates, FIG. 2A): 10 nM, 15 nM and 20 nM, effect positive proportional to the concentration; for numbers of osteoclasts as a function of concentration (FIG. 3): compared to the contrast containing M-CSF and RANKL only
Description: Bone marrow cells (BMCs) from DBA/1J mice were obtained for osteoclast progenitor cell preparation. The BMCs were isolated from the tibias and femurs of 8-wk-old male mice by flushing the bone marrow cavity with PBS. The cells were then centrifuged at 1000 g for 10 min and exposed to 5 ml of hypotonic ACK buffer ([…], and 0.1 mM EDTA, (pH 7.4)) at room temperature for […] to remove the red blood cells. They were incubated with α-MEM (Gibco BRL) containing penicillin (100 U/ml), streptomycin (100 μg/ml) and 10% heat-inactivated FBS for 12 hr to separate the floating and adherent cells. The floating cells were collected, suspended in α-MEM, counted, seeded onto a 96-well plate at 4×10^4 cells/well, and cultured in α-MEM in the presence of 30 ng/ml M-CSF for 3 days to form macrophage-like osteoclast precursor cells. […] On day 3, the medium was replaced with fresh medium containing M-CSF, RANKL and P. amboinicus.
(§1) TRAP staining was performed as described Han et al. 2007. Briefly, cells were washed with PBS and fixed with 3.7% formaldehyde for 30 min. After washing with PBS, cells were incubated at 37 in a humid and light-protected incubator for 1 hr in the reaction mixture of the Leukocyte Acid Phosphatase Assay kit (Cat. 387, Sigma), as directed by the manufacturer. Cells were washed three times with distilled water and TRAP-positive multinucleated cells containing five or more nuclei were counted under a light microscope. To measure TRAP activity, cells were lysed in 150λ of 0.2% Triton X-100 in PBS, RT for 15 min and then incubated with 100λ of phosphatase substrate solution kit (Cat. CS0740, Sigma) at 37 for 30 min. After incubation, the enzyme reaction mixture was transferred to another plate and the reaction was stopped with 100λ of 0.5N NaOH. Absorbance was measured at 405 nm in a ELISA plate reader, and activity calculated from standard curve generated using p-nitrophenol standards. TRAP activity was normalized to total protein (determined by the BCA assay (Cat. 23225, PIERCE)) as well as to total number of nuclei counted after TRAP and hematoxylin staining of a second, identical 96-well plate run in conjunction with that used for the TRAP assay.
(§2) Please refer to FIG. 1A and FIG. 1B, bone marrow-derived macrophages were plated in a plate A with M-CSF (FIG. 1A) and a plate B with M-CSF and RANKL (FIG. 1B) and murine RAW264.7 were plated in a plate C (FIG. 1C) and a plate D with RANKL (FIG. 1D) separately. After a period, the growth of the osteoclast in the plate A (plate C) is different from that in the plate B (plate D). According to the abovementioned, M-CSF and RANKL secreted by the osteoblasts will promote the growth of the osteoclast. Therefore, the growth of the osteoclast cannot be seen in the plate A. In the contrast, there are a lot of osteoclasts grown in the plate B.

murine RAW264.7 = test: Osteoclast differentiation of murine RAW264.7 cells (RANKL), TRAP staining and count of multinucleated cells; format: cell-based; settings: for inhibiting osteoclasts grown (observation of plates, FIG. 2B): 10 nM, 15 nM and 20 nM, effect positive proportional to the concentration; for numbers of osteoclasts as a function of concentration (FIG. 4): compared to the contrast containing RANKL only
Description: Murine RAW264.7 (murine leukemic monocyte/macrophage), a type of osteoclast progenitor cells. The murine monocyte/macrophage cell line RAW264.7 was cultured with DMEM (Gibco BRL) containing 10% heat-inactivated FBS, penicillin (100 U/ml), and streptomycin (100 μg/ml). All cells were grown in a humidified atmosphere containing 5% CO^2 at 37. To induce osteoclast differentiation, RAW264.7 cells were suspended in α-MEM containing 10% FBS, 2 mM […], 100 U/ml penicillin, and 100 μg/ml streptomycin, seeded at 10^4 cells/dish in a 96-well plate and cultured with 100 ng/ml soluble RANKL for 5 days. The medium was changed on day 3.
as §1, §2

SMILES	effect for inhibiting osteoclast growth [1]	inhibiting osteoclasts grown (observation of plates, FIG. 2A) [1]	numbers of osteoclasts as a function of concentration (FIG. 3) [1]	inhibiting osteoclasts grown (observation of plates, FIG. 2B) (murine RAW264.7)	numbers of osteoclasts as a function of concentration (FIG. 4) (murine RAW264.7)
O=C(Nc1cccc(C(F)(F)F)c1)c1ccccc1O [Compound 1, 2-hydroxy-N-[3-(trifluoromethyl)phenyl]benzamide]	most significant effect for inhibiting osteoclast growth				
O=C(Nc1ccc(F)c(F)c1)c1ccccc1O [Compound 5, N-(3,4-difluorophenyl)-2-hydroxybenzamide]	most significant effect for inhibiting osteoclast growth	have the effect for inhibiting osteoclasts grown	can inhibit osteoclasts grown	have the effect for inhibiting osteoclasts grown	can inhibit osteoclasts grown
O=C(Nc1ccc(Cl)cc1F)c1ccccc1O [Compound 6, N-(4-chloro-2-fluorophenyl)-2-hydroxybenzamide]	most significant effect for inhibiting osteoclast growth	have the effect for inhibiting osteoclasts grown	can inhibit osteoclasts grown	have the effect for inhibiting osteoclasts grown	can inhibit osteoclasts grown
C#Cc1cccc(NC(=O)c2ccccc2O)c1 [Compound 3, N-(3-ethynylphenyl)-2-hydroxybenzamide]	most significant effect for inhibiting osteoclast growth	have the effect for inhibiting osteoclasts grown	can inhibit osteoclasts grown	have the effect for inhibiting osteoclasts grown	can inhibit osteoclasts grown
